Results on 60 compounds are retold here after the METLIN SMRT retention time set (Domingo-Almenara et al. 2019).

This data set is described as follows: gradient 5% acetonitrile 3 min, to 50% in 2 min, to 85% in 15 min, held 3 min, 100 µL/min. The conditions noted are these: column: Zorbax Extend-C18 2.1 x 50 mm; eluents: water / acetonitrile, 0.1% formic acid. An outline of the steps:
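The mobile phases were water and acetonitrile, each with 0.1% formic acid, pumped at 100 μL/min through a Zorbax Extend-C18 column (2.1 × 50 mm, 1.8 μm). Pure standards were injected as mixtures of ~100 molecules and detected by a quadrupole time-of-flight mass spectrometer in positive and negative ionization mode. Retention time came from computationally picked adduct peaks, each inspected by hand.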
Compound `O=C(Cc1cccs1)N1CCC2(CC1)N=C(c1ccc(Cl)cc1)NO2` returned an RP-LC retention time of 859 s.
Take `CC1(C)COc2ccc(NC(=O)c3cccc(Br)c3)cc2NC1=O`: the RP-LC retention time was determined as 892 s.
`Cc1nc(-c2noc(-c3ccncc3)n2)cn1CC(=O)NCc1cccc(Cl)c1` displayed an RP-LC retention time of 693 s.
Next, `CSc1ccc(CNC(=O)C2CCCN(c3ncnc4nn(-c5ccc(C)cc5)cc34)C2)cc1` (stereo not given): 750 s; `O=C(NCCn1ncccc1=O)c1ccc(S(=O)(=O)N2CCOCC2)cc1`: 572 s.
`Cc1cccc(CNC(=O)C2(C)Oc3cccnc3N(C)C2=O)c1` (stereo not given) returned an RP-LC retention time of 876 s.
The compound `COC(=O)c1cc(S(=O)(=O)N2CCCC2C(=O)Nc2ccccc2)cn1C` (stereo not given) yielded an RP-LC retention time of 818 s.
The figure for `O=C1COc2cc(S(=O)(=O)N3CCC(C(=O)NCC4CCCO4)CC3)c(Cl)cc2N1` (stereo not given) is 653 s; for `Cc1cc(=O)oc2c3c(cc(OCC(=O)N[C@H](CC(C)C)C(=O)O)c12)OC(C)(C)CC3` it is 892 s.
The figure for `CCCNC(=O)N1CCN(c2cc(-c3ccc(OC)c(OC)c3)ncn2)CC1` is 601 s; for `CCN1C(=O)C2(CCN(S(=O)(=O)Cc3ccccc3)CC2)c2ccccc21` it is 976 s.
`Cc1noc(-c2nn(C)c3c2CN(C(=O)NCc2ccccc2)CC3)n1` had an RP-LC retention time of 761 s.
Next, `CC(CCc1ccccc1)NC(=O)C1CN(C(=O)c2cccs2)C1` (stereo not given): 727 s.
The figure for `CCCNc1cc(N2CCCC(CCC(=O)NCc3ccccn3)C2)ncn1` (stereo not given) is 550 s.
Next, `Cn1c(=O)c2c(nc3n(-c4ccccc4N)c(-c4ccc(Cl)cc4)cn23)n(C)c1=O`: 883 s.
Take `CC(=C/c1ccccc1)/C=C1/NC(=S)NC1=O`: the RP-LC retention time was 880 s.
Regarding `Cc1cc(C)cc(NC(=O)C2CCN(S(=O)(=O)c3cc(C(=O)N4CCOCC4)cs3)CC2)c1`, the RP-LC retention time amounted to 760 s.
Next, `CCOC(=O)Cc1csc(NC(=O)C2CCN(C(C)=O)CC2)n1`: 631 s.
With `CCOCC(=O)N1CCCN(C2=NS(=O)(=O)C(c3ccccc3)=C2C)CC1`, the RP-LC retention time was determined as 688 s.
In turn, `O=C(c1ccoc1)N1CCOc2ccc(N3CCOCC3)cc2C1` displayed an RP-LC retention time of 678 s.
Next, `CNC(=O)Nc1ccc(C2(C(=O)Nc3ccc4c(c3)CCC4)CCC2)cc1`: 844 s; `COc1ccc(NC(=O)c2cnc3c(c2)c(=O)n(C)c(=O)n3-c2ccc(C)cc2)cc1F`: 849 s.
Next, `Cn1c(=O)c(N2CCN(C(=O)c3cccs3)CC2)nc2cccnc21`: 793 s; `CCNC(=O)C1CCCN(c2nc3ncn(CC(=O)NC4CCCCC4)c(=O)c3s2)C1` (stereo not given): 658 s; `Cc1cc(C)cc(C(=O)N2c3ccccc3CC2c2nc(C3CC3)no2)c1` (stereo not given): 1130 s.
Next, `CC(/C=C/C(=O)NO)=C\C(C)C(=O)c1ccc(N(C)C)cc1` (stereo not given): 723 s; `Cc1ccn2cc(-c3ccc(C)c(NS(=O)(=O)c4ccc(C)c(C)c4)c3)nc2c1`: 729 s; `CCOC(=O)c1c(NC(=O)CSc2n[nH]c(N)n2)sc(C)c1C`: 696 s.
`CCC(=O)Nc1ccc(CCc2nc3ccc(C(=O)NC4CCCCC4)cc3[nH]2)cc1` showed an RP-LC retention time of 647 s.
Next, `COc1ccc(NC(=O)c2c(O)c3cccnc3n(-c3ccccc3)c2=O)cc1`: 1200 s.
The figure for `CCNC(=O)c1cccc(Nc2c(-c3ccc(SC)cc3)nc3cnccn23)c1` is 887 s; for `CC(C)(C)c1noc(-c2cccn3c(CC(=O)NC4CCCCC4)nnc23)n1` it is 754 s; for `O=C(Nc1ccc(F)cc1F)C1(CCO)CCN(c2ncccn2)C1` (stereo not given) it is 611 s.
Next, `COC(=O)c1ccccc1NC(=O)Cn1ccn2nc(-c3ccccc3)c(CO)c2c1=O`: 884 s; `Cc1ccc(Nc2c(-c3ccc(C)cc3)nc3nc(C)cc(C)n23)cc1`: 780 s.
Compound `O=C(Nc1cccc(Cl)c1)C(=O)c1cn(CC(=O)N2CCOCC2)c2ccccc12` came in with an RP-LC retention time of 997 s.
Next, `O=C(NCC(O)(c1ccccc1)C(F)(F)F)c1cccs1` (stereo not given): 815 s.
Next, `Cc1noc(-c2ccc(=O)n(C(C)C)n2)n1`: 715 s.
Next, `O=C(NC1CC1)C1CCN(S(=O)(=O)Cc2ccc(Cl)cc2)CC1`: 735 s; `O=C(CCCS(=O)(=O)Cc1ccccc1)Nc1nc2c(s1)Cc1ccccc1-2`: 841 s.
For `Cc1ccc(NC(=O)N2CCCC2c2nc(-c3ccccc3C)no2)c(Cl)c1` (stereo not given), the RP-LC retention time stood at 610 s.
The figure for `COc1ccc(-c2cc3nc(C)cc(N4CCN(c5ccccn5)CC4)n3n2)cc1OC` is 583 s; for `CN(C)CCNc1ncnc2c1cnn2-c1cccc(Cl)c1` it is 648 s.
The figure for `Cc1ccccc1CNC(=O)Cn1nc(C(=O)N2CCCC2)c2ccccc21` is 799 s; for `COc1cccc(N2C(=O)CC(N3CCC(C(N)=O)CC3)C2=O)c1` (stereo not given) it is 585 s.
The figure for `CCCc1nc2cccnc2n1C1CCN(C(=O)Nc2cccc(OC)c2)C1` (stereo not given) is 617 s; for `Cn1cc(-c2ccncc2)cc1C(=O)NCc1ccccc1Cl` it is 646 s.
`CCOC(=O)CNC(=O)CSc1nnc(NC(=O)c2nc3ccccc3s2)s1` yielded an RP-LC retention time of 736 s.
The figure for `O=C(Nc1c(F)cccc1F)N1CCc2[nH]cnc2C1c1ccccn1` (stereo not given) is 582 s.
The figure for `O=C(NC1CCCCC1)c1ccc2ncnc(N3CCCC3)c2c1` is 636 s; for `COc1ccc(S(=O)(=O)N2CCCC(C(=O)NC3CCCCCC3)C2)cc1C` (stereo not given) it is 1040 s.
The figure for `Cc1ccc2[nH]cc(CCNC(=O)NC3CCCCC3)c2c1` is 874 s.
Regarding `Cc1oc(C2CCN(C(=O)Cc3cccs3)CC2)nc1C(=O)N1CCSCC1`, the RP-LC retention time came to 742 s.
Next, `COc1ccc(CSc2nnc3c(S(=O)(=O)N4CCCCC4)cccn23)cc1`: 861 s; `Cc1cccc(CNC(=O)Cn2nc(C(=O)N3CCCC3)c3ccccc32)c1`: 828 s; `CCCOc1nc2ccccc2nc1N1CCCC(C(=O)Nc2ccc(OC)c(OC)c2)C1` (stereo not given): 1130 s.
Next, `CCn1c(SCC(=O)N2CCCCC2)nnc1-c1ccc2c(c1)OCCCO2`: 734 s; `CCc1cc(=O)n(CC(=O)N(C)c2cccc(C)c2)c(N2CCOCC2)n1`: 764 s.
`O=C(Nc1ccc(N2CCN(C3CCCCC3)C2=O)nc1)c1ccc2c(c1)OCO2` had an RP-LC retention time of 808 s.
The figure for `Cc1nc(-c2noc(-c3ccc(F)cc3)n2)cn1CC(=O)NCc1cccs1` is 814 s.
